| Structure (SMILES) | melting point |
| --- | --- |
| Fc1ccc(/C=C/c2nc(COc3ccc(CCCCn4ccnn4)cc3)co2)cc1 [Compound B2, 1-{4-[4-({2-[(E)-2-(4-fluorophenyl)ethenyl]-1,3-oxazol-4-yl}methoxy)phenyl]butyl}-1H-1,2,3-triazole] | 124 to 125 °C |
| Fc1ccc(/C=C/c2nc(COc3cccc(CCCn4ccnn4)c3)co2)cc1 [Compound B3, 1-{3-[3-({2-[(E)-2-(4-fluorophenyl)ethenyl]-1,3-oxazol-4-yl}methoxy)phenyl]propyl}-1H-1,2,3-triazole] | 105 to 106 °C |
| FC(F)(F)c1ccc(/C=C/c2nc(COc3ccc(CCCn4ccnn4)cc3)co2)cc1 [Compound B5, 1-(3-{4-[(2-((E)-2-[4-(trifluoromethyl)phenyl]ethenyl)-1,3-oxazol-4-yl)methoxy]phenyl)propyl)-1H-1,2,3-triazole] | 157 to 158 °C |
| FC(F)(F)c1ccc(/C=C/c2nc(COc3cccc(CCCn4ccnn4)c3)co2)cc1 [Compound B6, 1-(3-{3-[(2-((E)-2-[4-(trifluoromethyl)phenyl]ethenyl}-1,3-oxazol-4-yl)methoxy]phenyl}propyl)-1H-1,2,3-triazole] | 115 to 116 °C |
| Fc1ccc(/C=C/c2nc(COc3ccc(CCCCn4ccnn4)cc3)co2)c(F)c1 [Compound B7, 1-{4-[4-({2-[(E)-2-(2,4-difluorophenyl)ethenyl]-1,3-oxazol-4-yl}methoxy)phenyl]butyl}-1H-1,2,3-triazole] | 115 to 117 °C |
| Fc1ccc(/C=C/c2nc(COc3cccc(CCCn4ccnn4)c3)co2)c(F)c1 [Compound B8, 1-{3-[3-({2-[(E)-2-(2,4-difluorophenyl)ethenyl]-1,3-oxazol-4-yl}methoxy)phenyl]propyl}-1H-1,2,3-triazole] | 89 to 90 °C |
| OCC(O)Cc1nccn1CCCCc1ccc(OCc2coc(/C=C/c3ccc(F)cc3)n2)cc1 (stereo not shown) [Compound B23, 3-(1-{4-[4-({2-[(E)-2-(4-fluorophenyl)ethenyl]-1,3-oxazol-4-yl}methoxy)phenyl]butyl}-1H-imidazol-2-yl)-1,2-propanediol] | 114 to 116 °C |
| OCC(O)Cc1nccn1CCCCc1ccc(OCc2coc(/C=C/c3ccc(C(F)(F)F)cc3)n2)cc1 (stereo not shown) [Compound B24, 3-[1-(4-(4-[(2-{(E)-2-[4-(trifluoromethyl)phenyl]ethenyl)-1,3-oxazol-4-yl)methoxy]phenyl}butyl)-1H-imidazol-2-yl]-1,2-propanediol] | 142 to 143 °C |
| OCC(O)Cc1nccn1CCCc1cccc(OCc2coc(/C=C/c3ccc(C(F)(F)F)cc3)n2)c1 (stereo not shown) [Compound B25, 3-[1-(3-{3-[(2-{(E)-2-[4-(trifluoromethyl)phenyl]ethenyl}-1,3-oxazol-4-yl)methoxy]phenyl]propyl)-1H-imidazol-2-yl]-1,2-propanediol] | 102 to 104 °C |
| OCC(O)Cc1nccn1CCCCc1ccc(OCc2coc(/C=C/c3ccc(F)cc3F)n2)cc1 (stereo not shown) [Compound B26, 3-(1-{4-[4-({2-[(E)-2-(2,4-difluorophenyl)ethenyl]-1,3-oxazol-4-yl)methoxy)phenyl]butyl}-1H-imidazol-2-yl)-1,2-propanediol] | 126 to 128 °C |
| OCC(O)Cc1nccn1CCCc1cccc(OCc2coc(/C=C/c3ccc(F)cc3F)n2)c1 (stereo not shown) [Compound B27, 3-(1-{3-[3-({2-[(E)-2-(2,4-difluorophenyl)ethenyl]-1,3-oxazol-4-yl}methoxy)phenyl]propyl}-1H-imidazol-2-yl)-1,2-propanediol] | 92 to 94 °C |
| OCC(O)Cc1nccn1CCCCc1ccc(OCc2coc(/C=C/c3c(F)cccc3F)n2)cc1 (stereo not shown) [Compound B28, 3-[1-[4-[4-[[2-[(E)-2-(2,6-difluorophenyl)ethenyl]-1,3-oxazol-4-yl]methoxy]phenyl]butyl]-1H-imidazol-2-yl]-1,2-propanediol] | 123 to 125 °C |

Continued, values first:

| melting point | Structure (SMILES) |
| --- | --- |
| 108 to 109 °C | Cc1ccc(/C=C/c2nc(COc3ccc(CCCCn4ccnc4CCO)cc3)co2)cc1 [Compound B10, 2-[1-[4-[4-[[2-[(E)-2-(4-methylphenyl)ethenyl]-1,3-oxazol-4-yl]methoxy]phenyl]butyl]-1H-imidazol-2-yl]-1-ethanol] |
| 109 to 111 °C | Cc1cccc(/C=C/c2nc(COc3ccc(CCCCn4ccnc4CCO)cc3)co2)c1 [Compound B11, 2-[1-[4-[4-[[2-[(E)-2-(3-methylphenyl)ethenyl]-1,3-oxazol-4-yl]methoxy]phenyl]butyl]-1H-imidazol-2-yl]-1-ethanol] |
| 91 to 93 °C | Cc1ccccc1/C=C/c1nc(COc2ccc(CCCCn3ccnc3CCO)cc2)co1 [Compound B12, 2-[1-[4-[4-[[2-[(E)-2-(2-methylphenyl)ethenyl]-1,3-oxazol-4-yl]methoxy]phenyl]butyl]-1H-imidazol-2-yl]-1-ethanol] |
| 94 to 95 °C | CCc1ccc(/C=C/c2nc(COc3ccc(CCCCn4ccnc4CCO)cc3)co2)cc1 [Compound B13, 2-[1-[4-[4-[[2-[(E)-2-(4-ethylphenyl)ethenyl]-1,3-oxazol-4-yl]methoxy]phenyl]butyl]-1H-imidazol-2-yl]-1-ethanol] |
| 130 to 132 °C | OCCc1nccn1CCCCc1ccc(OCc2coc(/C=C/c3ccc(F)cc3)n2)cc1 [Compound B14, 2-(1-{4-[4-({2-[(E)-2-(4-fluorophenyl)ethenyl]-1,3-oxazol-4-yl}methoxy)phenyl]butyl)-1H-imidazol-2-yl)-1-ethanol] |
| 127 to 128 °C | OCCc1nccn1CCCCc1ccc(OCc2coc(/C=C/c3ccc(Cl)cc3)n2)cc1 [Compound B15, 2-[1-[4-[4-[[2-[(E)-2-(4-chlorophenyl)ethenyl]-1,3-oxazol-4-yl]methoxy]phenyl]butyl]-1H-imidazol-2-yl]-1-ethanol] |
| 149 to 150 °C | OCCc1nccn1CCCCc1ccc(OCc2coc(/C=C/c3ccc(Br)cc3)n2)cc1 [Compound B16, 2-[1-[4-[4-[[2-[(E)-2-(4-bromophenyl)ethenyl]-1,3-oxazol-4-yl]methoxy]phenyl]butyl]-1H-imidazol-2-yl]-1-ethanol] |
| 93 to 95 °C | OCCc1nccn1CCCCc1ccc(OCc2coc(/C=C/c3ccc(F)cc3F)n2)cc1 [Compound B19, 2-[1-[4-[4-[[2-[(E)-2-(2,4-difluorophenyl)ethenyl]-1,3-oxazol-4-yl]methoxy]phenyl]butyl]-1H-imidazol-2-yl]-1-ethanol] |
| 94 to 96 °C | OCCc1nccn1CCCc1ccc(OCc2coc(/C=C/c3ccc(F)cc3F)n2)cc1 [Compound B20, 2-[1-[3-[4-[[2-[(E)-2-(2,4-difluorophenyl)ethenyl]-1,3-oxazol-4-yl]methoxy]phenyl]propyl]-1H-imidazol-2-yl]-1-ethanol] |
| 102 to 104 °C | Cc1cccc(/C=C/c2nc(COc3ccc(CCCCn4ccnc4CC(O)CO)cc3)co2)c1 (stereo not shown) [Compound B22, 3-(1-{4-[4-({2-[(E)-2-(3-methylphenyl)ethenyl]-1,3-oxazol-4-yl}methoxy)phenyl]butyl}-1H-imidazol-2-yl)-1,2-propanediol] |
